The IC50 is the midpoint of a concentration-inhibition curve. Usually Kd stands for a measure of binding affinity in units of concentration.

We go through four compounds from PMC10766610, “DCAF1-based PROTACs with activity against clinically validated targets overcoming intrinsic- and acquired-degrader resistance” (Nature Communications, 2024).

Assay [1] addresses T1, DCAF1(WDR) with additional 10 µM BTK (Homo sapiens, UniProt Q06187+Q9Y4B6, E1398S).
T1 construct: 2 nM human DCAF1(1073-1399)_E1398S-Avi-His; human BTK (G389-S659); His6 (C); His (PreScission site) (N); made in house; host or cells: Sf9 insect cells (both chains)
Nature of the assay: DCAF1 TR-FRET, cooperative format with 10 µM BTK. Type of assay: binding. The settings on record: cooperative format (+ BTK in Fig. 6b); ± SD (n); read-out: IC50 Alpha DCAF1 TR-FRET. On the procedure: (§1) Competition assay conditions consist of 20 µL total volume in white 384-well plates (Greiner), in 30 mM phosphate buffer pH 7.4 containing 140 mM NaCl, 0.01% Tween20, 1 mM TCEP and 1% final DMSO. Tested compounds at 14 different concentrations were pre-incubated at 22 °C for 30 min with a large excess of 10 µM human BTK (G389-S659) or 10 µM human BRD9-BD(130-250) in the cooperative assay or with buffer in standard binary assay. […] Samples were then incubated at 22 °C for 30 min before reading using a Tecan infinite M-1000 or PheraStar FSX (excitation 340 nm, emission 490 and 520 nm). DCAF1 protein was omitted in the negative control. IC50 fitting was carried out using an in-house developed software (Novartis Helios software application, unpublished, a publicly available alternative would be e.g., Graphpad Prism) using the methods described by Fomenko et al.[93] (regression algorithms for nonlinear dose-response curve fitting). Following normalization of activity values for the wells to % inhibition (% inhibition = [(high control-sample)/(high control-low control)] × 100). Data analysis could also be carried out using GraphPad Prism without prior normalization. The reported IC50 values are the average of at least two independent experiments.
(TR-FRET usually uses a lanthanide donor and a delayed reading to cut background.)

The target in a further assay is T2, DCAF1(WDR) + BTK (Homo sapiens, UniProt Q06187+Q9Y4B6, E1398S).
T2 construct: BTK (389-659) or BRD9; His6 (C); His (PreScission site) (N); made in house; host or cells: Sf9 insect cells (both chains)
Briefly: SPR ternary binding assay, immobilized DCAF1(WDR), BTK (389-659) in buffer. The conditions noted are these: Fig. 6b. From the text:
Supplementary figure 8. SPR data of binary and ternary DCAF1-BTK PROTACs
without additional BTK as analytes. […] In
the middle panel the steady state fit responses are blotted against the PROTAC concentrations The
Source data are provided as a Source Data file

Assay [2] concerns the target T3, DCAF1(WDR) with additional 10 µM BRD9-BD(130-250) (Homo sapiens, UniProt Q9H8M2+Q9Y4B6, E1398S).
T3 construct: 2 nM human DCAF1(1073-1399)_E1398S-Avi-His; human BRD9-BD(130-250) in the cooperative assay; His6 (C); GST (PreScission site) (N, cleaved yes); made in house; host or cells: DCAF1: Sf9 with BirA; BRD9: E. coli Rosetta (pGEX6P1)
Briefly: DCAF1 TR-FRET, cooperative format with 10 µM BRD9-BD(130-250). In kind it is binding. The settings on record: read-out: TR-FRET Q. IC50 [μM], + BRD9. How it is done:
as §1

A further assay concerns the target T4, BRD9 (Homo sapiens, UniProt Q9H8M2).
T4 sequence (Q9H8M2 1-597): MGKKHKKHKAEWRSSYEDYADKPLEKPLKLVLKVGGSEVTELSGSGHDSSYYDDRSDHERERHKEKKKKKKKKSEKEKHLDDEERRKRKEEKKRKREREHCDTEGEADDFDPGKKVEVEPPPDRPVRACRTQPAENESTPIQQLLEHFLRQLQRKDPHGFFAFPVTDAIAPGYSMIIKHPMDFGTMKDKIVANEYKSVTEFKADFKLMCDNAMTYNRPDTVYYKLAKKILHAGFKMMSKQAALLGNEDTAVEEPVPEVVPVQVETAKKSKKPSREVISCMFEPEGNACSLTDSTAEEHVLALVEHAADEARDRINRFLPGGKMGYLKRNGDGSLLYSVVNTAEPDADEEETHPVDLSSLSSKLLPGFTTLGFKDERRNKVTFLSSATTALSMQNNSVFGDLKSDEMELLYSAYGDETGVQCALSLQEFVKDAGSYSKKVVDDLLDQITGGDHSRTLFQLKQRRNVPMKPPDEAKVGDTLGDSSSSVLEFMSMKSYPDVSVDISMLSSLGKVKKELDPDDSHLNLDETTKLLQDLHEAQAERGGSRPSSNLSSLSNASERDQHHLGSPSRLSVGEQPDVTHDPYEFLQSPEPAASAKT
Briefly: Immunoblot of BRD9 in HEK293 BRD9-HiBiT/FF/CAS9 cells. In kind it is cell-based. Further details: host or cells: HEK293/BRD9-HiBiT knock-in; clone and BRD9-HiBiT/CAS9/FF clone. How it is done:
Whole cell lysates for immunoblotting were prepared by pelleting cells at 4 °C (300 g) for 3 min. Cell pellets were then washed 1x with PBS and resuspended in RIPA lysis buffer (VWR, cat # 97063-270) supplemented with protease (Thermo Scientific, cat # A32955) and phosphatase (Thermo Scientific, cat # A32957) inhibitor tablets. Lysates were clarified at 16,000 × g for 15 min at 4 °C prior to quantification by Lowry assay (Bio-Rad cat # 5000113 and cat # 5000114). Whole-cell lysates were loaded into 4–20% Criterion TGX Precast 18 well gels (Bio-Rad, cat # 5671094) and separated by electrophoreses at 120 V for 1 h. The gels were transferred to a nitrocellulose membrane using the Trans-Blot Turbo (Bio-Rad) for 7 min and then blocked for 1 h at room temperature in Odyssey blocking buffer (LICOR Biosciences, cat # 927-50000). Membranes were probed with the appropriate primary antibodies (diluted 1:1000) overnight at 4 °C in 20% Odyssey blocking buffer in 1x TBST. Membranes were washed three times with 1x TBST (5 min per wash), and then incubated with IRDye goat anti-mouse (LICOR, cat # 926-32210) or goat anti-rabbit (LICOR, cat # 926-32211) secondary antibody diluted 1:10,000 in 20% Odyssey blocking buffer for 1 h at room temperature. After three 5-min washes with 1x TBST, the immunoblots were visualized using the ODYSSEY Infrared Imaging System (LICOR). Alternatively, SDS-PAGE resolved proteins were transferred to a PVDF membrane using a wet blotting system (Invitrogen). Membranes were blocked in 5% Milk-PBS-Tween 20 for 1 h and incubated with primary antibody over night at 4 °C. Secondary antibodies (secondary antibody: anti-rabbit, goat pAb to Rb-IgG (Abcam, #7090); secondary antibody: anti-mouse, sheep IgG HRP-linked (GE healthcare, #NA931V)) were incubated for 1 h at room temperature (RT) before blots were developed on film using the detection kit SuperSignal West Femto Maximum Sensitivity Substrate (Thermo Fisher, #34096).
Background: In western blotting, separated proteins are transferred to a membrane and probed.

T1 sequence (Q9Y4B6 1073-1399 E1398S): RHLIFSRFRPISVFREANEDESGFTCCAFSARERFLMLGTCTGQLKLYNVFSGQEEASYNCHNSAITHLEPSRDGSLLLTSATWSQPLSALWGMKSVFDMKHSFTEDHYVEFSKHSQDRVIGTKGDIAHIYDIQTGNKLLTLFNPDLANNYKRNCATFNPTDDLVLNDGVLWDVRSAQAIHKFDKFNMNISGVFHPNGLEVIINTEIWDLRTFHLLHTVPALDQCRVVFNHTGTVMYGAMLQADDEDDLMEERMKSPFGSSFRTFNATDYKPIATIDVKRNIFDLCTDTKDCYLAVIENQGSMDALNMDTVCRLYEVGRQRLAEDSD
T1 sequence (Q06187 389-659): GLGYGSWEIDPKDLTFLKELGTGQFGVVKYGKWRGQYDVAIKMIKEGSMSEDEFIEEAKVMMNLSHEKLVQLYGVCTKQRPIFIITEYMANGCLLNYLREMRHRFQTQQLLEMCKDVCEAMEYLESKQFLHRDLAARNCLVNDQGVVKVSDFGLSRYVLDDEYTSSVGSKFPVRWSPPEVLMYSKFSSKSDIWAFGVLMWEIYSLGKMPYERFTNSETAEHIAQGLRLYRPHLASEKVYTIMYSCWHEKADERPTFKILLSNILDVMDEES
T2 sequence (Q9Y4B6 1073-1399 E1398S): as the sequence (Q9Y4B6 1073-1399 E1398S) above
T2 sequence (Q06187 389-659): as the sequence (Q06187 389-659) above
T3 sequence (Q9Y4B6 1073-1399 E1398S, one chain of several): as the sequence (Q9Y4B6 1073-1399 E1398S) above

Take `Cc1c(NC(=O)N2CC(O)(CC(C)(C)C)C2)cc(F)cc1-c1ncnc2[nH]c(-c3cnn(CC(=O)N4CCC5(CC4)CN(CCNC(=O)CCCC(=O)N4CCN(c6ccc7c(NCCN)nc(C8(c9ccc(Cl)cc9)CCCCC8)nc7c6)CC4)CCO5)c3)cc12` [DBt-10]: in assay [1], the IC50 stood at 82 ± 39 nM. For the same compound, the Kd at DCAF1(WDR) + BTK came to 33 nM.
In the case of `COc1cc(-c2cn(C)c(=O)c3cnccc23)c(OC)cc1CN1CCC(OCCCCCC(=O)N2CCN(c3ccc4c(NCCN)nc(C5(c6ccc(Cl)cc6)CCCCC5)nc4c3)CC2)CC1` [DBr-1], the IC50 in assay [2] was determined as 0.002 µM. Further, the BRD9 protein loss entry on BRD9 (1000 nM, 6 h, HEK293 cells) was “about 90%”. Besides, the BRD9 degradation on BRD9 (1000 nM, after 30 min) amounted to 90%. Moreover, at BRD9 (6 h, HEK293 cells, immunoblot, read-out: DC50 BRD9 estimated from dose-response curve), the DC50 is around 500 nM.
Turning to `Cc1c(NC(=O)c2ccc(C(C)(C)O)cc2F)cc(F)cc1-c1ncnc2[nH]c(-c3ccc(CNCCOCCOCCOCCOCCOCCOCCOCCOCCOCCOCCOCCOCCC(=O)N4CCN(c5ccc6c(NCCN)nc(C7(c8ccc(Cl)cc8)CCCCC7)nc6c5)CC4)cc3)cc12` [DBt-5], in assay [1], the IC50 was found to be 282 ± 84 nM. Besides, the Kd on DCAF1(WDR) + BTK turned out to be 480 nM.
In the case of `CC(=O)N1CCN(c2ccc3c(NCCN)nc(C4(c5ccc(Cl)cc5)CCCCC4)nc3c2)CC1` [compound 13], the “BRD9 protein reduction by individual binders” value at BRD9 (1000 nM, 6 h) is given as “No BRD9 protein reduction”.
